Publication PMC4603705, “A bioinspired peptide scaffold with high antibiotic activity and low in vivo toxicity” (Scientific Reports, 2015)
In brackets after ≈: the same amount, converted by molar mass. Like-named read-outs stand apart in the source and are kept apart here. Bridge positions count the residues as written; N and C are the ends. Square brackets hold non-standard residues; d marks the D form. Peptide text beside a SMILES is read from it. * marks the point of attachment. Nonanoyl = CCCCCCCCC(=O)*; Dab = NCC[C@H](N)C(=O)O

Legend:
[1] = no reference given, cited from earlier work
P. aeruginosa ATTC 9027 = type: cell-based, Pseudomonas aeruginosa; details: ATTC 9027
Experimental: (§1) MICs were measured after 18–20 h of incubation in sterile 96-well plates (Corning Costar 3598 microtiter plates) in Mueller Hinton Broth (MHB) culture medium, (Difco, USA), according to well known in vitro protocols. Bacterial strains in Table 1 were: P. aeruginosa ATTC 9027, E. coli ATTC 8739, S. aureus ATTC 6538, and E. faecalis ATTC 29212. MICs shown in table 4 were performed by Mary Conrad at Cubist Pharmaceuticals (Lexington, MA) in non-binding surface plates.

E. coli ATTC 8739 = type: cell-based, Escherichia coli; details: ATTC 8739
Experimental: as §1

[2] = system: Madine-Darby canine kidney cells (MDCK, renal model); assay: In vitro cytotoxicity (WST-1 cell viability), MDCK; type: cell-based
Experimental: (§2) Cell viability assays were performed using the tetrazolium dye WST1 (similar to MTT) on human dermal fibroblasts (3T3 hDF), MDCK (renal model, Madin-Darby canine kidney cells) and PC12 (NGF treated; neuronal model) cell lines and followed standard protocols. Briefly, cells were seeded into 96-well plates, after incubation for 24 h, the medium was replaced with fresh cell culture medium containing the products (range 0-1.2 mg/mL). Negative and positive controls consisted of plates in the absence of the test compound and plates with sodium dodecyl sulfate (0.02% w/v), respectively. Cell viability was assayed with the tetrazolium salt (4-[3-(4- iodophenyl)-2-(4-nitrophenyl)-2H-5-tetrazolio]-1,3-benzene disulfonate) (WST-1). The relative WST-1 absorbance was recorded at 450 nm.
(§3) The products at concentrations ranging from 0 to 1.2 mg/mL were tested (triplicate) and in two independent experiments. The statistical analysis of the data was performed by using non-linear regression (curve-fit) and the model used agreed with the four parameter logistic model (4PL), also called the Hill-Slope model (sigmoid model), with the following equation: […]
(§4) where y is the percent activity and x is the corresponding concentration. The quantities determined where the point estimate IC50 (Half maximal (50%) inhibitory concentration (IC) of a substance, see Table II), the corresponding 95% confidence interval and R^2 (measures the goodness of fit) are shown in the Supplementary Table S2.

[3] = system: human dermic fibroblasts (hDF); assay: In vitro cytotoxicity (WST-1 cell viability), hDF; type: cell-based
Experimental: as §2, §3, §4

[4] = system: PC12 (treated with NGF, neuronal model); assay: In vitro cytotoxicity (WST-1 cell viability), PC12; type: cell-based; details: WST-1, NGF treated
Experimental: as §2, §3, §4

E. faecalis ATTC 29212 = assay: microbe, parasite or virus in culture; type: cell-based, Enterococcus faecalis
Experimental: Lipopeptide 39 was chosen for this, as it is known that long fatty acids tend to favor activity against Gram-positive bacteria in polymyxin analogs. […] In summary, new broad-spectrum antimicrobial lipopeptides were achieved.
as §1

S. aureus ATTC 6538 = assay: microbe, parasite or virus in culture; type: cell-based, Staphylococcus aureus
Experimental: as §1

S. aureus = assay: microbe, parasite or virus in culture; type: cell-based, Staphylococcus aureus; details: for MIC: Staphylococcus aureus
Experimental: as §1

[5] = Supplementary Table S2, experiment 1
[6] = Supplementary Table S2, experiment 2

In the case of Somatostatin, the half-life ([1]; administered in vivo) is listed as 2 to 3 min.
For lanreotide [reference compound], the half-lives ([1]; metabolic degradation) is listed as 2 to 3 h.
In the case of `CCCCCCCCC(=O)N[C@@H](CCCNC(=N)N)C(=O)N[C@H](C(=O)N[C@@H](CCN)C(=O)N[C@H]1CSSC[C@@H](C(N)=O)NC(=O)[C@H](CCN)NC(=O)[C@H](CCCNC(=N)N)NC(=O)[C@H](CC(C)C)NC(=O)[C@@H](Cc2ccccc2)NC(=O)[C@H](CCN)NC1=O)[C@@H](C)O` [Analog 5, nonanoyl-Arg-Thr-Dab-Cys-Dab-Phe-Leu-Arg-Dab-Cys] (Nonanoyl-RT[Dab]C[Dab][dF]LR[Dab]C-NH2; disulfide 4-10), the “MIC P. aeruginosa” value (P. aeruginosa ATTC 9027) is reported as 16 µg/mL (≈ 12 µM), the “MIC E. coli” value (E. coli ATTC 8739) is reported as 8 µg/mL (≈ 5.99 µM) and the IC50 MDCK Exp1 [2, 5] is reported as 541 µg/mL (≈ 405 µM). For the same molecule, the IC50 MDCK Exp2 [2, 6] was 554 µg/mL (≈ 415 µM), the “IC50 MDCK” value ([2]; cytotoxicity, WST-1) was 548 µg/mL (≈ 410 µM) and the IC50 hDF Exp1 [3, 5] was 555 µg/mL (≈ 416 µM). The IC50 hDF Exp2 [3, 6] was 513 µg/mL (≈ 384 µM), the “IC50 hDF” value ([3]; cytotoxicity, WST-1) was 534 µg/mL (≈ 400 µM) and the “IC50 PC12” value [4] was 629 µg/mL (≈ 471 µM).
With `CN[C@H](CC(C)C)C(=O)N[C@H]1C(=O)N[C@@H](CC(N)=O)C(=O)N[C@H]2C(=O)N[C@H]3C(=O)N[C@H](C(=O)N[C@H](C(=O)O)c4cc(O)cc(O)c4-c4cc3ccc4O)[C@H](O)c3ccc(c(Cl)c3)Oc3cc2cc(c3O[C@@H]2O[C@H](CO)[C@@H](O)[C@H](O)[C@H]2O[C@H]2C[C@](C)(N)[C@H](O)[C@H](C)O2)Oc2ccc(cc2Cl)[C@H]1O` [Vancomycin] the MIC (E. faecalis ATTC 29212; Enterococcus faecalis, ATTC29212, read-out: MIC E. faecalis Wild type ATTC 29212) was 2 µg/mL (≈ 1.38 µM), the MIC (S. aureus ATTC 6538; Staphylococcus aureus, ATTC6538, read-out: MIC S. aureus) was 1 µg/mL (≈ 0.69 µM) and the MIC (S. aureus; read-out: MIC S. aureus DR, MR SAU.1616) was 2 µg/mL (≈ 1.38 µM). For the same molecule, the MIC (S. aureus; read-out: MIC S. aureus DR, MS SAU.278) was 2 µg/mL (≈ 1.38 µM), the MIC (S. aureus; read-out: MIC S. aureus MR ATTC 43300) was 2 µg/mL (≈ 1.38 µM) and the MIC (S. aureus; read-out: MIC S. aureus MR SAU.1118) was 0.5 µg/mL (≈ 0.345 µM). The MIC (S. aureus; read-out: MIC S. aureus MS ATTC 29213) was 0.5 to 1 µg/mL (≈ 0.345 to 0.69 µM).
For `CCCCCCCCCC(=O)N[C@@H](Cc1c[nH]c2ccccc12)C(=O)N[C@H](CC(N)=O)C(=O)N[C@@H](CC(=O)O)C(=O)N[C@@H]1C(=O)NCC(=O)N[C@@H](CCCN)C(=O)N[C@@H](CC(=O)O)C(=O)N[C@H](C)C(=O)N[C@@H](CC(=O)O)C(=O)NCC(=O)N[C@H](CO)C(=O)N[C@@H]([C@H](C)CC(=O)O)C(=O)N[C@@H](CC(=O)c2ccccc2N)C(=O)O[C@@H]1C` [Daptomycin], the “MIC E. faecalis Wild type ATTC 29212” value (E. faecalis ATTC 29212; ATTC 29212) was 2 to 4 µg/mL, the “MIC S. aureus” value (S. aureus ATTC 6538; ATTC 6538) was 1 µg/mL (≈ 0.617 µM) and the “MIC S. aureus DR, MR SAU.1616” value (S. aureus) was 16 µg/mL (≈ 9.87 µM). The “MIC S. aureus DR, MS SAU.278” value (S. aureus) was 8 µg/mL (≈ 4.94 µM), the “MIC S. aureus MR ATTC 43300” value (S. aureus) was 0.5 µg/mL (≈ 0.309 µM) and the “MIC S. aureus MR SAU.1118” value (S. aureus) was 0.5 µg/mL (≈ 0.309 µM). For the same molecule, the “MIC S. aureus MS ATTC 29213” value (S. aureus) was 0.5 µg/mL (≈ 0.309 µM).
